The supplement of paper PMC10307832

Legend:
Assay in all cases: relative viability (nuclei count vs DMSO), 5 days (fraction); higher = more cells survive
[1] = compound: CN(C/C=C/C1=CC=C(C=C1)Cl)CC2=CC=CC=C2N(CCO)S(=O)(=O)C3=CC=C(C=C3)OC [KN-93] + Nc1nc2[nH]cc(CCc3ccc(C(=O)N[C@@H](CCC(=O)O)C(=O)O)cc3)c2c(=O)[nH]1 [Pemetrexed] (partner 0.2 µM)
How it was run: (§1)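 Relative viability was taken as the ratio of nuclei in treated wells to nuclei in vehicle wells. Lung cancer cell lines in 1536-well plates received compounds by pin tool one day after seeding, either one drug alone or a fixed anchor-drug dose plus five library-drug doses (not always all listed) in √10 steps. Nuclei were counted on 4× images after 5 days of treatment, and values are medians of duplicate plates.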

[2] = compound: CN(C/C=C/C1=CC=C(C=C1)Cl)CC2=CC=CC=C2N(CCO)S(=O)(=O)C3=CC=C(C=C3)OC [KN-93] + N=C(N)NC(=N)NCCc1ccccc1 [Phenformin] (partner 250 µM)
How it was run: as §1

[3] = compound: CN(C/C=C/C1=CC=C(C=C1)Cl)CC2=CC=CC=C2N(CCO)S(=O)(=O)C3=CC=C(C=C3)OC [KN-93] + CC(=O)c1c(C)c2cnc(Nc3ccc(N4CCNCC4)cn3)nc2n(C2CCCC2)c1=O [Palbociclib] (partner 0.5 µM)
How it was run: as §1

[4] = compound: CN(C/C=C/C1=CC=C(C=C1)Cl)CC2=CC=CC=C2N(CCO)S(=O)(=O)C3=CC=C(C=C3)OC [KN-93] + O=C(c1cc(Cc2n[nH]c(=O)c3ccccc23)ccc1F)N1CCN(C(=O)C2CC2)CC1 [Olaparib] (partner 8 µM)
How it was run: as §1

[5] = compound: CN(C/C=C/C1=CC=C(C=C1)Cl)CC2=CC=CC=C2N(CCO)S(=O)(=O)C3=CC=C(C=C3)OC [KN-93] + CS(=O)(=O)CCNCc1ccc(-c2ccc3ncnc(Nc4ccc(OCc5cccc(F)c5)c(Cl)c4)c3c2)o1 [Lapatinib] (partner 2 µM)
How it was run: as §1

Cell Line	relative viability ([1]; first compound 0.08 µM)	relative viability ([1]; first compound 0.253 µM)	relative viability ([1]; first compound 2.53 µM)	relative viability ([1]; first compound 8 µM)	relative viability ([2]; first compound 0.08 µM)	relative viability ([2]; first compound 0.253 µM)	relative viability ([2]; first compound 2.53 µM)	relative viability ([2]; first compound 8 µM)	relative viability ([3]; first compound 0.08 µM)	relative viability ([3]; first compound 0.253 µM)	relative viability ([3]; first compound 2.53 µM)	relative viability ([3]; first compound 8 µM)	relative viability ([4]; first compound 0.08 µM)	relative viability ([4]; first compound 0.253 µM)	relative viability ([4]; first compound 2.53 µM)	relative viability ([4]; first compound 8 µM)	relative viability ([5]; first compound 0.08 µM)	relative viability ([5]; first compound 2.53 µM)	relative viability ([5]; first compound 8 µM)	relative viability ([5]; first compound 0.253 µM)
LCLC-97TM1	0.199	0.165	0.179	0.145	0.418	0.494	0.488	0.407	0.293	0.227	0.207	0.158	0.308	0.368	0.449	0.242	1.06	1.12	0.425	
LK-2	0.275	0.273	0.288	0.2	0.505	0.398	0.341	0.233	0.775	1.12	0.834	0.559	0.79	0.643	0.89	0.582	0.972	1.02	0.862	1.26
LOU-NH91	0.356	0.325	0.445	0.439	0.667	0.614	0.8	0.628	0.542	0.562	0.56	0.512	0.901	0.809	0.976	0.847	0.761	0.886	0.692	0.575
LU99A	0.183	0.183	0.189	0.222	0.91	0.88	0.774	0.676	0.455	0.457	0.397	0.371	0.257	0.271	0.244	0.264	1.16	0.797	0.89	1.21
LXF-289	0.925	0.926	0.977	0.684	0.515	0.568	0.597	0.504	0.512	0.672	0.628	0.552	0.903	1.18	1.25	0.955	0.845	1	0.737	0.934
NCI-H23	0.685	0.866	0.883	0.502	0.705	0.889	0.88	0.609	0.516	0.493	0.618	0.418	0.3	0.251	0.407	0.233	1.05	1.31	0.883	1.1
NCI-H322M	0.641	0.628	0.701	0.614	0.753	0.746	0.838	0.604	0.481	0.503	0.494	0.445	0.766	0.817	0.706	0.689	0.605	0.61	0.566	0.633
NCI-H358	0.166	0.182	0.169	0.157	0.32	0.444	0.384	0.251	0.14	0.136	0.138	0.131	0.678	0.638	0.608	0.502	0.49	0.444	0.291	0.528
NCI-H460	0.0661	0.0588	0.0591	0.0687	0.299	0.565	0.552	0.396	0.167	0.0991	0.147	0.205	0.286	0.468	0.586	0.305	0.302	1.12	0.45	1.27
NCI-H520	0.72	0.738	0.658	0.422	0.732	0.769	0.842	0.451	0.219	0.218	0.251	0.201	0.312	0.312	0.282	0.272		1.05	0.727	0.904
NCI-H647	0.176	0.181	0.159	0.174	0.696	0.552	0.643	0.484	0.346	0.364	0.349	0.473	0.648	0.766	0.881	0.421	0.836	1.26	0.819	1.07
NCI-H650	1.02	0.993	1.04	0.788	0.481	0.47	0.449	0.414	0.314	0.307	0.327	0.271	0.425	0.366	0.368	0.397	1.19	1.29	0.615	1.04
NCI-H661	0.89	1.15	0.753	0.504	0.307	0.273	0.26	0.294	0.439	0.409	0.308	0.308	0.577	0.951	0.64	0.4	0.484	0.448	0.447	0.511
NCI-H838	0.258	0.278	0.25	0.214	0.648	0.565	0.596	0.547	0.222	0.182	0.216	0.212	0.939	0.709	1.18	0.613	0.903	1.12	0.746	0.78
NCI-H1355	1.11	0.918	1.27	0.972	0.497	0.456	0.438	0.427	0.427	0.342	0.436	0.332	0.628	0.67	0.766	0.477	0.954	1.05	0.913	0.79
